The values below come from paper PMC4660513 (Pharmacognosy Research, 2015).

The test system of data set [1] is human UGT2B7. The following applies: read-out: Km for 4-MU glucuronidation by human UGT2B7 isoform; cited from earlier work.
The target of a further data set is T1, recombinant human UGT1A1 (Homo sapiens, UniProt P22309).
T1 sequence (P22309 26-533): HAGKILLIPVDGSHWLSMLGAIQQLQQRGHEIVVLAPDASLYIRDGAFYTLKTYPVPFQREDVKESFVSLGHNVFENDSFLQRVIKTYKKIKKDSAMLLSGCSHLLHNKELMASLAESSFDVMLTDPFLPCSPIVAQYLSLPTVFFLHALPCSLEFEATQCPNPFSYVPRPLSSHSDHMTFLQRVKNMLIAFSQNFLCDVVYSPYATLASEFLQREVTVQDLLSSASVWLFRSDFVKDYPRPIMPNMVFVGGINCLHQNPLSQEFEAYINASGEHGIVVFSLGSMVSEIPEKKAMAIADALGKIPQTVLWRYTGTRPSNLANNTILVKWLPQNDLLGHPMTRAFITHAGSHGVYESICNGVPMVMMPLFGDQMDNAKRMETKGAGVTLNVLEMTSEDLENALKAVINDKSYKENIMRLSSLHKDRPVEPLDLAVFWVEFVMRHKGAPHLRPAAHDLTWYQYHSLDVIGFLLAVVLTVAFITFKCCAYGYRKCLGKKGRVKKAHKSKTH
The data set can be described thus: 4-MU glucuronidation inhibition assay with recombinant human UGT1A1 isoform. It is filed as in vitro ADME.

Data set [2] deals with UGT (4-MU glucuronidation). In words: 4-MU glucuronidation inhibition assay in rat liver microsomes. In kind it is in vitro ADME. The following applies: rat, rat liver microsomes, pH 7.4, probe 4-methylumbelliferone (4-MU), 100 μM.
Data set [3] concerns human UGT2B7. The settings on record: read-out: estimated IC50, human UGT2B7; previous study; cited from earlier work.
Another data set relates to UGT (s). The settings on record: cited from earlier work.
The target of a further data set is T2, recombinant human UGT2B7 (Homo sapiens, UniProt P16662).
T2 sequence (P16662 24-529): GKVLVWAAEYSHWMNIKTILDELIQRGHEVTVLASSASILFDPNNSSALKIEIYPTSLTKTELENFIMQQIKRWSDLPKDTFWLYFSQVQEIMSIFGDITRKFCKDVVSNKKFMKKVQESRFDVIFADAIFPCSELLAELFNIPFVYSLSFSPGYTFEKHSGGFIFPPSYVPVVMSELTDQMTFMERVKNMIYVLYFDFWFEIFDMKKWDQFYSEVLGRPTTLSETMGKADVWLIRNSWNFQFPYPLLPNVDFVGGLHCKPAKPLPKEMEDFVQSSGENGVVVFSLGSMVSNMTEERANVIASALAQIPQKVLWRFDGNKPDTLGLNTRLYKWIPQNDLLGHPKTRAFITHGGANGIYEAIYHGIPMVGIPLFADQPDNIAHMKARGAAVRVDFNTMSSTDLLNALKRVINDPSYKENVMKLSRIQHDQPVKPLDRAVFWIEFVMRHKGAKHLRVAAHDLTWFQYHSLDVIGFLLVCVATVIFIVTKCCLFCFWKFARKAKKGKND
The data set can be described thus: 4-MU glucuronidation inhibition assay with recombinant human UGT2B7 isoform. In kind it is in vitro ADME.

The conditions of data set [4]: cited from earlier work.
The subject of another data set is human UGT1A1. The following applies: previous report; cited from earlier work.
The test system of another data set is human UGT2B15. The following applies: read-out: estimated IC50, human UGT2B15; previous study; cited from earlier work.
Another data set relates to UGT1A1. The settings on record: except at highly extraordinary concentrations; cited from earlier work.
The subject of another data set is human liver microsomes. The data set can be described thus: 4-MU glucuronidation inhibition assay in human liver microsomes. In kind it is in vitro ADME. The settings on record: comparison of IC50 values.
Data set [5] relates to human UGT2B7. The following applies: read-out: Km for buprenorphine glucuronidation by human UGT2B7 isoform; cited from earlier work.
A further data set deals with rat liver microsomes. The data set can be described thus: 4-MU glucuronidation inhibition assay in rat liver microsomes. In kind it is in vitro ADME.

“And” between values parts separate entries of the source, which are not always exact repeats. Equal entries are not always repeated. Structures can show the parent of a compound that is named as a salt. Where two headings read alike, the source gives them in different places. Some results are limits rather than exact numbers.

For `Cc1cc(=O)oc2cc(O)ccc12` [4-MU, 4-methylumbelliferone], the Km in the data set on human UGT2B7 [1] was 335 µM.
As to `O=C(O)Cc1ccccc1Nc1c(Cl)cccc1Cl` [Diclofenac, diclofenac], at recombinant human UGT1A1, the IC50 was 2.34 ± 1.28 µM. The IC50 at 30 min in data set [2] was 21.1 ± 1.32 µM.
As for `CNC1(c2ccccc2Cl)CCCCC1=O` (centres unmarked) [Ketamine, Ketamine hydrochloride], the IC50 was above 1000 µM on recombinant human UGT1A1, 55 µM with human UGT2B7 [3], 27.3 ± 1.18 µM at recombinant human UGT2B7 and 95 µM in the data set on human UGT2B15. Further, the “manner of inhibition of morphine-3-glucuronide formation” value with UGT (s) is “non-competitive”. The “ketamine concentration after low-dose administration” value in data set [4] (0.125–0.250 mg/kg intravenous) was > 0.42 μM and > 100 μg/l. Also, in [4] (induction 2 mg/kg, maintenance approx. 40 μg/kg/min), the “mean plasma concentration during steady-state anesthesia” value was 9.3 µM. Also, in the data set on human UGT1A1, the “inhibitory effect on 4-MU glucuronidation in human UGT1A1 isoform” value is recorded as “weak inhibitory effect”. Besides, in data set [2], inhibition was half-maximal at 6.21 ± 1.51 µM (IC50 at 30 min).
For buprenorphine hydrochloride, in the data set with UGT1A1, the “inhibitory effect on bilirubin glucuronidation catalyzed by UGT1A1” value was “no significant inhibitory effect”. Also, the “potency relative to diclofenac (more potent)” value with human liver microsomes is on record as “about 13 orders of magnitude”. In the data set on human UGT2B7 [5], the Km is 20.9 µM. For the same compound, in the data set on rat liver microsomes (rat liver microsomes, comparison of IC50 values), the “potency relative to diclofenac” value is listed as “about three orders of magnitude less potent than diclofenac”. Further, in the data set on rat liver microsomes (read-out: IC50 on 4-MUG formation, rat liver microsomes), the IC50 amounted to 73.2 ± 1.63 µM.
